Measurements from patent publication US20250042911A1, “NOVEL BENZOPYRAN DERIVATIVE AND USE THEREOF” (SPARK BIOPHARMA, INC, priority 2021, published 2025).
Counter-ions that a name gives are not always drawn.

What was measured:
melanoma cells (B316F10) = assay: Tumor growth inhibition in C57BL/6 syngeneic mouse model implanted with melanoma cells; type: in vivo; details: 20 mg/kg orally once a day for 9 or 10 days, female C57BL/6 mice with implanted melanoma cells, tumor volume vs control group; for inhibition in vivo at 20 mg/kg: Mus musculus, po, read-out: TGI (%)
Protocol: The tumor growth inhibition effect of benzopyrene derivatives was evaluated in a C57BL/6 mouse tumor model (syngeneic mouse model) in which melanoma cells (B316F10) derived from C57BL/6 mice are implanted.
After the quarantine and acclimation period was over, a cell suspension prepared with 5×10^5 cells/0.1 mL PBS was filled into a disposable syringe and administered in an amount of 0.1 mL PBS/head subcutaneously to the right back of healthy test animals (female C57BL/6, 7 weeks old) for implantation. After cell line implantation, general symptoms were observed once daily during the engraftment and growth period. Animals with no abnormalities in their health and whose tumor volume reached 50 to 100 mm^3 when measured with a digital caliper were selected. Then, based on tumor volume and body weight, the groups were separated so that the average tumor volume per group was 70 to 100 mm^3. Ten (10) animals were separated per group, and 20 mg/kg of benzopyran derivatives were administered orally once a day for 9 or 10 days. Tumor volume was measured once every 2 or 3 days.
The measured tumor volume of the test compound administered groups was compared with that of the control group and is represented in Table 2 as the tumor growth inhibition (TGI, %).

human M2 macrophages = assay: Inhibition of human M2 macrophage activity, hCCL22 in culture supernatant by ELISA; type: cell-based; details: hCCL22 secretion, THP-1 derived M2-like macrophages, compound present during 72 hours of differentiation
Procedure, shortened: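 THP-1 monocytes were differentiated with 100 ng/mL PMA for 24 h, then polarized with 25 ng/mL hIL-4 plus 25 ng/mL hIL-13 for 72 h. Compounds were present throughout the 72 h polarization. CCL22 in the supernatant was quantified by ELISA to give inhibition or EC50.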

SMILES | inhibition in vivo at 20 mg/kg (melanoma cells (B316F10)) [%] | EC50 (human M2 macrophages) [µM] | TGI (%) (melanoma cells (B316F10); phosphate)
CCN(c1ccc2c(c1)OC(C)(C)C1=CCn3c(=O)n(-c4ccc(C(C)=O)cc4)c(=O)n3C12)C(C)C (stereo not drawn) [Example 46, 2-(4-acetylphenyl)-10-(ethyl(isopropyl)amino)-7,7-dimethyl-5,12b-dihydro-1H,7H-chromeno[4,3-c][1,2,4]triazolo[1,2-a]pyridazine-1,3(2H)-dione] | 25 to 66 | 7 | –
CC(=O)c1ccc(-n2c(=O)n3n(c2=O)C2C(=CC3)C(C)(C)Oc3cc(OC(=O)N(C)C)ccc32)cc1 (stereo not drawn) [Example 62, 2-(4-acetylphenyl)-7,7-dimethyl-1,3-dioxo-2,3,5,12b-tetrahydro-1H,7H-chromeno[4,3-c][1,2,4]triazolo[1,2-a]pyridazin-10-yl dimethylcarbamate] | 32.3 | 41.3 | –
CC(=O)C(=O)N1CCN(C(=O)Oc2ccc3c(c2)OC(C)(C)C2=CCn4c(=O)n(-c5ccc(C(C)=O)cc5)c(=O)n4C23)CC1 (stereo not drawn) [Example 68, 2-(4-acetylphenyl)-7,7-dimethyl-1,3-dioxo-2,3,5,12b-tetrahydro-1H,7H-chromeno[4,3-c][1,2,4]triazolo[1,2-a]pyridazin-10-yl 4-(2-oxopropanoyl)piperazine-1-carboxylate] | 25 to 66 | 74.7 | –
CC(=O)c1ccc(-n2c(=O)n3n(c2=O)C2C(=CC3)C(C)(C)Oc3cc(OP(=O)(O)O)ccc32)cc1 (stereo not drawn) [Example 70, disodium 2-(4-acetylphenyl)-7,7-dimethyl-1,3-dioxo-2,3,5,12b-tetrahydro-1H,7H-chromeno[4,3-c][1,2,4]triazolo[1,2-a]pyridazin-10-yl phosphate] | – | 9.4 | 26.2
CC(=O)c1ccc(-n2c(=O)n3n(c2=O)C2C(=CC3)C(C)(C)Oc3cc(OC(=O)CN(C)C)ccc32)cc1 (stereo not drawn) [Example 72, 2-(4-acetylphenyl)-7,7-dimethyl-1,3-dioxo-2,3,5,12b-tetrahydro-1H,7H-chromeno[4,3-c][1,2,4]triazolo[1,2-a]pyridazin-10-yl dimethylglycinate hydrochloride] | 25 to 66 | 4.7 | –
CC(=O)c1ccc(-n2c(=O)n3n(c2=O)C2C(=CC3)C(C)(C)Oc3cc(OC(=O)N4CCN(C(=O)[C@@H]5CCCN5)CC4)ccc32)cc1 (stereo partly drawn) [Example 82, 2-(4-acetylphenyl)-7,7-dimethyl-1,3-dioxo-2,3,5,12b-tetrahydro-1H,7H-chromeno[4,3-c][1,2,4]triazolo[1,2-a]pyridazin-10-yl 4-(L-prolyl)piperazine-1-carboxylate hydrochloride] | 66.3 | 68.6 | –
